Entries after “also recorded” stand apart in the source; their conditions may differ. One block for each compound: values may come before it. {ppp} = triphosphate
Key:
Format in all cases: cell-based, Mouse (C57BL/6)
[1] = test system: neonatal cardiac fibroblasts; assay: qPCR of cardiomyocyte sarcomere (maturation) genes in miR combo reprogrammed fibroblasts; details: for cardiomyocyte maturation (expression of Actn2, Myh6, Tnni3, Cacna1c): miR combo or negmiR transfected, various concentrations of ICR for 4 days, gene expression at day 14
Method: (§1) Mouse (C57BL/6) neonatal cardiac fibroblasts were isolated from 2 day old mouse neonates according to the method outlined in Jayawardena et al. Following isolation fibroblasts were cultured in growth media containing DMEM (ATCC, Catalogue number 30-2002) supplemented with 15% v/v FBS (Thermo Scientific Hyclone Fetal bovine serum, Catalogue number SH30071.03, Lot number AXK49952) and 1% v/v penicillin/streptomycin (Gibco, Catalogue number 15140-122, 100 units Penicillin, 100 ug/ml Streptomycin). Fibroblasts were passaged once the cells had reached 70-80% confluence using 0.05% w/v trypsin (Gibco, Catalogue number 25300-054). Freshly isolated fibroblasts were labelled as Passage 0. Experiments were conducted with cells at passage 2. For all experiments, cells were seeded at 5000 cells/cm^2 in growth media. After 24 hours, the cells were transfected with transfection reagent alone (Dharmafect-I, ThermoScientific), with transfection reagent plus non-targeting microRNAs (negmiR), or with transfection reagent plus our previously reported combination of cardiac reprogramming microRNAs[9] (miR combo, miR-1, miR-133, miR-208, miR-499).
qPCR: Total RNA was extracted using Quick-RNA MiniPrep Kit according to the manufacturer's instructions (Zymo Research). Total RNA (50 ng-100 ng) was converted to cDNA using a high capacity cDNA reverse transcription kit (Applied Biosystems). cDNA was used in a standard qPCR reaction involving FAM conjugated gene specific primers and TaqMan Gene Expression Master Mix (Applied Biosystems). The following primers were used for qPCR: Gapdh (Mm99999915_m1), Tnni3 (Mm00437164_m1), Actn2 (Mm00473657_m1), Myh6 (Mm00440359_m1), Cacna1c (Mm00437917_m1), Mef2C (Mm01340482_m1), Tbx5 (Mm00803518_m1), Gata4 (Mm00484689_m1) and Hand2 (Mm00439247 m1).

[2] = test system: neonatal cardiac fibroblasts; assay: Actn2 (α-sarcomeric actinin) immunofluorescence of reprogrammed fibroblasts
Method: as §1
Cells were fixed with 2% v/v paraformaldehyde (EMS) as described previously. Fixed cells were blocked in antibody buffer (5% w/v BSA, 0.1% v/v Tween-20, in PBS) for 1 hr at room temperature. Following blocking, cells were incubated overnight at 4° C. with a-sarcomeric actinin antibody (Sigma, A7811, 1:100) in antibody buffer. After the overnight incubation, cells were washed three times in antibody buffer. Following washing, cells were incubated with Alexa-Fluor conjugated secondary antibodies (Invitrogen, Goat Anti-mouse 594 nm) at a 1:500 dilution in antibody buffer for 1 hr at room temperature. Nuclei were stained by DAPI at 1 μg/ml for 30 minutes at room temperature in antibody buffer. Following washing in PBS to remove unbound complexes, immunofluorescence was measured using a Zeiss Axiovert 200 inverted microscope.

TLR3 = biological target: T1, TLR3 (Mus musculus, UniProt Q99MB1); assay: IL6 ELISA: TLR3 activity measured as IL6 secretion into the media; details: CU-CPT-4a added one day post-transfection
T1 construct: neonatal cardiac fibroblasts were transfected with negmiR or miR combo; endogenous in cells; host or cells: mouse (C57BL/6) neonatal cardiac fibroblasts, passage 2
T1 sequence (Q99MB1 26-905): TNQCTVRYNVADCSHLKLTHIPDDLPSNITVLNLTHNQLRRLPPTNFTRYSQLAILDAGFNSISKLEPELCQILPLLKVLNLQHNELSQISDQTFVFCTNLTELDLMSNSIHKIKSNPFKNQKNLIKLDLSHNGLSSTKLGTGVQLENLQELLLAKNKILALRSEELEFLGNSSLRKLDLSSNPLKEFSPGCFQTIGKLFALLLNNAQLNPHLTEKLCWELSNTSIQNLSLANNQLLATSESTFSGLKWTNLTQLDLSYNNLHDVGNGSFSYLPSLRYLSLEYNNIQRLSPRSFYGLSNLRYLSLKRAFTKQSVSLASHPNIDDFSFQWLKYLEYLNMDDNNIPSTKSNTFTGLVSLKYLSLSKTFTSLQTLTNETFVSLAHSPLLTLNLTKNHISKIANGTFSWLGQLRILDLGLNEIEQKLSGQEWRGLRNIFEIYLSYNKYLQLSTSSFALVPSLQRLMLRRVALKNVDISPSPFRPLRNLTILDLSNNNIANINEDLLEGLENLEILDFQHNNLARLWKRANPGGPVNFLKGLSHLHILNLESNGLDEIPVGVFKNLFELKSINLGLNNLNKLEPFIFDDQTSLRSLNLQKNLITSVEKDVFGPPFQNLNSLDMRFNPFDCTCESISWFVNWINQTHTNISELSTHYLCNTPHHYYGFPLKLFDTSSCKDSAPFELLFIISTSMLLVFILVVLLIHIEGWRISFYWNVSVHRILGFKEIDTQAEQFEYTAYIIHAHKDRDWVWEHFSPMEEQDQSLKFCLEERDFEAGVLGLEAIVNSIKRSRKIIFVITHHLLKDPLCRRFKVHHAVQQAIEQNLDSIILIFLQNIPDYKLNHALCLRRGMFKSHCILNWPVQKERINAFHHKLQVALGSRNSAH
Method: IL6 ELISA kits were from R&D Systems. Fresh media (1 ml) was added to the cells one day prior to assaying for IL6. Per manufacturer's instructions 50 ul of media was assayed and the amount of IL6 in pg/ml in the culture media was determined via a standard curve. The IL6 pg/ml value was then adjusted for the total volume of the media (1 ml) and the total cellular protein in each well to correct for differences in cell number.
To test this further we transfected cells with microRNAs and assessed TLR3 activity by measuring IL6 secretion into the media. IL6 secretion is an accepted measurement of the activity of TLRs, including TLR3 [30-37]. […] Targeted knockdown of TLR3 or Ikbkb inhibited miR combo induced IL6 secretion; further validating that miR combo activated the TLR3-NFκB pathway (FIG. 6B).

[3] = test system: neonatal cardiac fibroblasts; assay: qPCR of cardiomyocyte-lineage commitment factors (initiation phase of cardiac reprogramming); details: TLR3 agonist Poly(I:C) LMW for 3 days after transfection, FIGS. 2Bi-2Biv
Method: as §1
qPCR: Total RNA was extracted using Quick-RNA MiniPrep Kit according to the manufacturer's instructions (Zymo Research). […]

[4] = test system: neonatal cardiac fibroblasts; assay: Generating beating reprogrammed cardiomyocytes (count of beating colonies)
Method: Isolated mouse (C57BL/6) neonatal cardiac fibroblasts (passage 2) were seeded into 12-well dishes at […] in growth media. Twenty-four hours later growth media was removed and the cells transfected with negmiR or miR combo as described above. One day later, the transfection complexes were removed and media was replaced with a chemically defined reprogramming media[12] that contained 1 ug/ml Poly(I:C) (LMW). For the next four days, cells received fresh chemically defined reprogramming media containing 1 ug/ml Poly(I:C) (LMW) daily. After this period, the cells received chemically defined reprogramming media without Poly(I:C) (LMW) for a further 10 days. Media was replaced every other day. Beating colonies were identified with a Zeiss Axiovert 200 inverted microscope.

- effect of negmiR and miR combo upon IL6 secretion (TLR3): completely ablated
Compound: O=C(N[C@H](Cc1ccccc1)C(=O)O)c1sc2cc(F)ccc2c1Cl [CU-CPT-4a]
- effect of miR combo upon cardiomyocyte sarcomere gene expression ([1]; CU-CPT-4a 10 μM for 4 days after miR combo transfection, then 6 days growth media): completely abolished
- miR combo reprogramming with respect to the expression of Myh6, Actn2, and Tnni3 ([1]; CU-CPT-4a 10 μM for 4 days after transfection, then 10 days growth media, FIGS. 1Bi-1Biii): completely inhibited
- ability of miR combo to generate mature cardiomyocytes with organized sarcomeres ([2]; CU-CPT-4a 10 μM, anti-Actn2 staining, FIGS. 1Ci-1Ciii): completely inhibited

Compound: ICR2: 2′F pyrimidine-incorporated 5′ppp RNA, blunt-ended hairpin, SEQ ID NO: 30: ggaug cggua ccuga cagca ucc (GGAUGCGGUACCUGACAGCAUCC; 2'-fluoro at CU, RNA at AG, 5' {ppp}, backbone not given here; blunt-ended hairpin)
- cardiomyocyte maturation (expression of Actn2, Myh6, Tnni3, Cacna1c) [1]: induced maturation; also recorded: activated cardiomyocyte maturation

Compound: ICR4: 5′ppp 2′F ssRNA comprising multiple stem-loops, SEQ ID NO: 37: ggaug cggua ccuga cagca uccua aacuc auggu ccaug uuugu ccaug gacca (GGAUGCGGUACCUGACAGCAUCCUAAACUCAUGGUCCAUGUUUGUCCAUGGACCA; 2'-fluoro at CU, RNA at AG, 5' {ppp}, backbone not given here; single strand with multiple stem-loops)
- cardiomyocyte maturation (expression of Actn2, Myh6, Tnni3, Cacna1c) [1]: activated cardiomyocyte maturation

Compound: Poly(I:C)
- expression of cardiomyocyte-commitment factors Gata4, Hand2, Tbx5 and Mef2C [3]: no effect
- increase of the ability of miR combo to form spontaneously beating colonies ([4]; addition of Poly(I:C) (LMW) 1 ug/ml, colonies counted 14 days after transfection): 3 fold
- time at which mature beating colonies were observed ([4]; miR combo plus Poly(I:C), time after transfection): within one week
- effect of miR combo upon Myh6, Actn2 and Tnni3 expression ([1]; Poly(I:C) LMW for 4 days after miR combo transfection, then 10 days growth media): significantly enhanced
- expression of Myh6, Actn2 and Tnni3 in the control negmiR samples ([1]; Poly(I:C) LMW for 4 days after negmiR transfection, then 10 days growth media): induced expression
- number of Actn2(+) cells that formed in response to miR combo treatment ([2]; Poly(I:C) LMW for 4 days, FIG. 7C): increased
- sarcomere maturation ([2]; miR combo plus Poly(I:C), inserts of FIGS. 7Bi-7Bvi): enhanced

From patent publication US11512290B2, “Compositions and methods for cellular reprogramming” (Duke University, priority 2018, dated 2022)
